Reference: patent US9637529B2, “Medicament for atrophy treatment or increasing cell growth” (SIMU TRADE CONSULTING GMBH & CO. LEASING KG, priority 2012, dated 2017)
Entries after “also recorded” stand apart in the source; their conditions may differ.

Experiments:
[1] = test system: human T-cell line (Jurkat); test: H2O2-induced apoptosis, trypan-blue staining, Jurkat; format: cell-based; details: 200 mM H2O2, SERF2 5 μg/ml, 6 hours, serum-free
Method: Experiments were performed in 6-well plates containing 5 ml cell culture medium (serum-free) per well and were seeded at a cell density of 1*10^6 cells/well and cultured overnight. On the next day 200 mM H2O2 (red bar) or 200 mM H2O2 and SERF2 (green bar; 5 μg/ml) was added to cultures. After 6 hours of incubation, the adherent cells were harvested, washed 3 times in PBS and dead cells were detected by trypan-blue staining using light microscopy. Shown is the percentage of dead cells.
Trypan Blue staining is one of the most commonly used methods to determine the cell viability using light microscopy. Trypan blue can only stain cells if their membrane is damaged.
The question was asked whether SERF2 has an effect on growth factor deprivation- or stress-induced apoptosis. The experimental protocol included addition of Hydrogen peroxide (H2O2), which is known to cause cellular stress and consequently apoptotic death in doses below 200 μM (Cox A., Carcinogenesis. 2007, Vol. 28, 10). Furthermore apoptosis was induced by deprivation of granulocyte macrophage colony-stimulating factor (GM-CSF) in cultures of TF-1 cells. These cells are dependent on the presence of a growth factor which is absolutely necessary for growth and differentiation of TF-1 cells.

[2] = test system: zebrafish; test: Zebrafish blood cell concentration; format: in vivo
Method: FIG. 14: Changes in blood cell concentrations in zebrafish incubated in different doses of SERF2. Shown are mean values (blood cells/nl) and SEM. Asterisks indicate significant differences to control animals.
FIG. 17: Detection of blood cells (green arrows) in 7 dpf zebrafish (top image=control, lower image=SERF2-treated). To determine blood cell concentration the number of detected cells were divided by vessel volume.
(§1) SERF2 was administered by a) injection of the native protein into the yolk sac of 3 day post fertilization (dpf) animals and freshly fertilized eggs (2-8 cell stage) in various protein concentrations or chronic incubation with the native protein to supply it via diffusion. For in deep analysis of angiogenic effects flk-1 transgenic animals with gfp (green fluorescent protein) labelled endothelium were used. For all other experiments wildtype (wdt) animals were used.
A cast of the vascular bed was obtained by accumulation of the shifting vectors of moving erythrocytes from a number of subsequent difference pictures, as described previously (by Schwerte et al., supra). In parallel to this flk-1 transgenic animals, which show green fluorescing endothelium, were imaged.

[3] = test system: TF-1 cells; test: Growth factor deprivation apoptosis, caspase-3 ELISA, TF-1; format: cell-based, human; details: serum-free medium with or without GM-CSF, SERF2 5 μg/ml, 9.5 hours
Method: TF-1 cells were incubated under different culture conditions: FCS+GM-CSF (dark blue), serum-free medium+GM-CSF (5 μg/ml; pale blue), serum-free medium+GM-CSF+SERF2 (5 μg/ml; lime), serum-free medium+SERF2 (green) and serum-free medium only (red). After 9.5 hours culture supernatants were analyzed by an ELISA-technique for caspase-3 expression levels. Results are expressed as pNA in pmol/μl
(§2) Caspase-3 is a member of the cysteine aspartic acid-specific protease family and is a marker of an early event in apoptosis. Caspase-3 expression was measured using a commercially available kit. Briefly, culture supernatants of cells undergoing apoptosis after different treatments were harvested and incubated with a substrate labeled with p-nitroaniline (pNA), which produces a yellow color when it is cleaved by caspase-3. The amount of produced yellow color is proportional to the caspase-3 activity, which can be determined by an ELISA reader at 405 nm (Promega). The assay was performed essentially as described by the manufacturer (instruction manual of CaspACE™ Assay System, Promega).
(§3) The question was asked whether SERF2 has an effect on growth factor deprivation- or stress-induced apoptosis. The experimental protocol included addition of Hydrogen peroxide (H2O2), which is known to cause cellular stress and consequently apoptotic death in doses below 200 μM (Cox A., Carcinogenesis. 2007, Vol. 28, 10). […]

[4] = test system: zebrafish; test: Zebrafish heart size / heart volume; format: in vivo; details: 7 dpf zebrafish incubated with different doses of SERF2
Method: FIG. 13: a: Changes in heart size in 7 dpf old zebrafish incubated with different doses of SERF2. b: Changes in heart volume in 7 dpf old zebrafish incubated in different concentrations of SERF2 and erythropoietin (EPO). Significant differences to control animals are indicated by asterisks.
as §1
Heart size was determined by measurement of end diastolic dimensions and calculation of end diastolic volume as described by Schwerte et al. (Schwerte et al. The Journal of Experimental Biology. 2003; 206 (Pt 8):1299-1307).

[5] = test system: 711-3 cells; test: H2O2-induced apoptosis, caspase-3 ELISA, 711-3; format: cell-based, human; details: serum-free medium with or without H2O2, SERF2 5 μg/ml, 9.5 hours
Method: 711-3 cells were incubated under different culture conditions: serum-free medium (dark blue), serum-free medium+SERF2 (5 μg/ml; lime) serum-free medium+SERF2+H2O2 (green) and serum-free medium+H2O2 (red). After 9.5 hours culture supernatants were analyzed by an ELISA-technique for caspase-3 expression levels. Results are expressed as pNA in pmol/μl.
as §2, §3

SERF2: Small EDRK-rich factor 2, mature protein of 59 amino acids (SEQ ID NO: 1) (MTRGNQRELARQKNMKKQSDSVKGKRRDDGLSAAARKQRDSEIMQQKQKKANEKKEEPK; homo sapiens)
protection from H2O2-induced apoptosis (percentage of dead cells), Jurkat [1]: markedly reduced apoptosis; also recorded: protects a human T-cell line (Jurkat) from H2O2-induced apoptosis | blood cell concentrations by treatment group ([2]; 7 dpf, incubation and injection routes): all but one treatment group show significantly increased blood cell concentrations | increase in blood cell concentration compared to controls ([2]; zebrafish, different doses of SERF2): 50 to 100% | apoptosis (caspase-3 levels) in TF-1 cells [3]: markedly reduced apoptosis; also recorded: compensates for FCS and alleviates apoptosis | change in heart volume [4]: significant increase of the animals heart volume | apoptosis (caspase-3 levels) in 711-3 cells [5]: markedly reduced apoptosis; also recorded: alleviates apoptosis
